{"source": "patent US9206177B2", "about": "“Substituted dimeric quinazoline-2,4-diones as FGF receptor agonists” (Sanofi, priority 2011, dated 2015)", "key": {"[1]": {"system": "human venous endothelial cells (HUVECs)", "experiment": "In vitro angiogenesis model (pseudotubule length of HUVECs on matrigel/collagen)", "format": "cell-based", "parameters": "% activation with respect to FGF2 (in vitro): concentration or dose not given beside the values", "conditions": "in vitro", "experimental": "In Vitro Angiogenesis Model\nThe products are tested for their ability to cause rearrangement of human venous endothelial cells (HUVECs) on matrigel (Becton dickinson 356230) diluted in collagen (rat tail collagen, type I: Becton dickinson 354236). After 24 hours, the cells are observed under a microscope with a ×4 objective and the length of the pseudotubules is measured by means of an image analyser (BIOCOM-logiciel Visiolab 2000)."}, "[2]": {"system": "mice", "experiment": "Sponge angiogenesis model (haemoglobin content of implanted cellulose sponge)", "format": "in vivo", "conditions": "at a concentration of 300 μM", "excerpt": "Sponge Angiogenesis Model\nThe sponge angiogenesis model is an adaptation of the technique of Andrade et al. [Andrade S P, Machado R., Teixeiras, Belo A V, Tarso A M, Beraldo W T—Sponge-induced angiogenesis in mice and the pharmacological reactivity of the neovasculature quantitated by fluorimetric method, Microvascular Research, 1997, 54: 253-61.]\nThe mice used are BalbC females from Charles River Laboratory, 7 to 10 weeks old. The animals are anaesthetized by intraperitoneal injection of a xylazine/ketamine mixture (1 mg/kg each in 0.9% NaCl). The animal's back is shaved and disinfected with hexomedine. A subcutaneous 5 ml pocket of air is made on the animal's back with sterile air. An incision is then made (approximately 1 cm) on the top of the animal's back in order to implant the sponge in the pocket. The biocompatible cellulose sponge (Cellspon, Interchim, 10 mm in diameter) was sterilized beforehand (autoclave 20 min at 120° C.) and is impregnated with 50 μl of sterile solution containing the test product. Suturing is performed by inserting two 9-mm stainless steel autoclip staples (Subra). The wound is again disinfected with hexomedine. […]\nTo assay the haemoglobin, 50 μl of each sample are deposited in a 96-well plate, in duplicate. […] The OD values are read on a spectrophotometer at 405 nm, using the Biolise software (Tecan, France). […]"}}, "data": [{"smiles": "Cc1c(-c2ccc(OCC(=O)NCCCCCCNC(=O)COc3ccc(-c4c(C)c(C(=O)c5ccc6[nH]c(=O)n(CC(=O)O)c(=O)c6c5)n5ccccc45)cc3)cc2)c2ccccn2c1C(=O)c1ccc2[nH]c(=O)n(CC(=O)O)c(=O)c2c1", "note": "[Compound 4]", "values": [{"measurement": "EC50", "setting": "[1]", "result": "< 1", "unit": "nM"}, {"measurement": "% activation with respect to FGF2 (in vitro)", "setting": "[1]; relative to FGF2", "result": 57, "unit": "%"}, {"measurement": "active on the in vitro angiogenesis model (sentence stands under the sponge angiogenesis model)", "setting": "[2]", "result": "active"}]}]}
